{"source": "patent EP0449009A2", "about": "“Use of gallopamil for the preparation of medicaments for the treatment of acute renal failure” (KNOLL AG, priority 1990, dated 1991)", "system": "Patienten, die an akutem Nierenversagen erkrankt waren", "assay": "Clinical study of gallopamil infusion in patients with acute renal failure", "format": "in vivo", "method": "Zum Nachweis der Wirksamkeit bei akutem Nierenversagen wurde Gallopamil 8 Patienten, die an akutem Nierenversagen erkrankt waren, über einen Zeitraum von 4 Stunden intrarenal in Dosierungen von 40 bis 160 µg/min kontinuierlich infundiert. Gleichzeitig wurde intravenös ein Diuretikum (Furosemid) in einer Konzentration von 40 µg/min über 24 Stunden verabreicht. Bei 2 weiteren Patienten wurde Gallopamil intravenös über Zeiträume von 3 und 24 Stunden in einer Menge von 40 µg/min infundiert.\nIn dieser Studie konnte bei 80 % der Patienten der deletäre Verlauf des akuten Nierenversagens gestoppt werden (siehe nachstehende Tabelle).", "key": {"[1]": {"conditions": "whole study: 8 patients 40 to 160 µg/min intrarenal over 4 h + Furosemid i.v., 2 patients 40 µg/min intravenous"}}, "data": [{"smiles": "COc1ccc(CCN(C)CCCC(C#N)(c2cc(OC)c(OC)c(OC)c2)C(C)C)cc1OC", "note": "(stereo not drawn) [Gallopamil, 1-(3,4-Dimethoxyphenyl)-3-methylaza-7-cyan-7-(3,4,5-trimethoxyphenyl)-8-methylnonan]", "values": [{"measurement": "Kreatinin-Ausscheidung nach einem Behandlungstag", "setting": "patient with G-6-PD (Glukose-6-phosphatdehydrogenasemangel), treatment begun 2 weeks after onset and after two dialyses, 83 µg/min intrarenal over 4 h + Furosemid 40 µg/min i.v. over 24 h, before treatment 0,8", "result": "1,2 ml/min"}, {"measurement": "Kreatininkonzentration im Blut nach sieben Behandlungstagen", "setting": "patient with G-6-PD (Glukose-6-phosphatdehydrogenasemangel), treatment begun 2 weeks after onset and after two dialyses, 83 µg/min intrarenal over 4 h + Furosemid 40 µg/min i.v. over 24 h, before treatment 14,1", "result": "14,6 mg/dl"}, {"measurement": "Kreatinin-Ausscheidung nach einem Behandlungstag", "setting": "patient with Malaria, treatment begun 2 weeks after onset and after two dialyses, 50 µg/min intrarenal over 4 h + Furosemid 40 µg/min i.v. over 24 h, before treatment 2,2", "result": "3,7 ml/min"}, {"measurement": "Kreatininkonzentration im Blut nach sieben Behandlungstagen", "setting": "patient with Malaria, treatment begun 2 weeks after onset and after two dialyses, 50 µg/min intrarenal over 4 h + Furosemid 40 µg/min i.v. over 24 h, before treatment 12,7", "result": "5,5 mg/dl"}, {"measurement": "Kreatinin-Ausscheidung nach einem Behandlungstag", "setting": "patient with Malaria, 40 µg/min intrarenal over 4 h + Furosemid 40 µg/min i.v. over 24 h, before treatment 5,3", "result": "14,3 ml/min"}, {"measurement": "Kreatininkonzentration im Blut nach sieben Behandlungstagen", "setting": "patient with Malaria, 40 µg/min intrarenal over 4 h + Furosemid 40 µg/min i.v. over 24 h, before treatment 10,4", "result": "3,1 mg/dl"}, {"measurement": "Kreatininkonzentration im Blut nach sieben Behandlungstagen", "setting": "patient with Rhabdomyolysis, 40 µg/min intravenous over 3 h, before treatment 5,2", "result": "5,9 mg/dl"}, {"measurement": "Kreatinin-Ausscheidung nach einem Behandlungstag", "setting": "patient with Rhabdomyolysis, 40 µg/min intravenous over 3 h, before treatment 8,9", "result": "3,6 ml/min"}, {"measurement": "Kreatinin-Ausscheidung nach einem Behandlungstag", "setting": "patient with Rhabdomyolysis, 80 µg/min intrarenal over 4 h + Furosemid 40 µg/min i.v. over 24 h, before treatment 4,0", "result": "5,1 ml/min"}, {"measurement": "Kreatininkonzentration im Blut nach sieben Behandlungstagen", "setting": "patient with Rhabdomyolysis, 80 µg/min intrarenal over 4 h + Furosemid 40 µg/min i.v. over 24 h, before treatment 10,1", "result": "9,3 mg/dl"}, {"measurement": "Kreatininkonzentration im Blut nach sieben Behandlungstagen", "setting": "patient with Schock, 40 µg/min intravenous over 24 h, before treatment 5,5", "result": "2,9 mg/dl"}, {"measurement": "Kreatinin-Ausscheidung nach einem Behandlungstag", "setting": "patient with Schock, 40 µg/min intravenous over 24 h, before treatment 10,4", "result": "17,9 ml/min"}, {"measurement": "Kreatinin-Ausscheidung nach einem Behandlungstag", "setting": "patient with Schock, 83 µg/min intrarenal over 4 h + Furosemid 40 µg/min i.v. over 24 h, before treatment 3,4", "result": "13,2 ml/min"}, {"measurement": "Kreatininkonzentration im Blut nach sieben Behandlungstagen", "setting": "patient with Schock, 83 µg/min intrarenal over 4 h + Furosemid 40 µg/min i.v. over 24 h, before treatment 4,7", "result": "1,1 mg/dl"}, {"measurement": "Kreatinin-Ausscheidung nach einem Behandlungstag", "setting": "patient with hypovolenischer Schock, 160 µg/min intrarenal over 4 h + Furosemid 40 µg/min i.v. over 24 h, before treatment 2,3", "result": "16,1 ml/min"}, {"measurement": "Kreatininkonzentration im Blut nach sieben Behandlungstagen", "setting": "patient with hypovolenischer Schock, 160 µg/min intrarenal over 4 h + Furosemid 40 µg/min i.v. over 24 h, before treatment 9,6", "result": "2,5 mg/dl"}, {"measurement": "Kreatininkonzentration im Blut nach sieben Behandlungstagen", "setting": "patient with septischer Schock, 83 µg/min intrarenal over 4 h + Furosemid 40 µg/min i.v. over 24 h, before treatment 10,6", "result": "1,3 mg/dl"}, {"measurement": "Kreatinin-Ausscheidung nach einem Behandlungstag", "setting": "patient with septischer Schock, 83 µg/min intrarenal over 4 h + Furosemid 40 µg/min i.v. over 24 h, before treatment 29,0", "result": "48,0 ml/min"}, {"measurement": "Patienten, bei denen auf eine Dialyse verzichtet werden konnte", "setting": "[1]", "result": 90, "unit": "%"}, {"measurement": "Patienten, bei denen der deletäre Verlauf des akuten Nierenversagens gestoppt werden konnte", "setting": "[1]", "result": 80, "unit": "%"}, {"measurement": "Überleben des akuten Nierenversagens", "setting": "[1]", "result": "alle Patienten überlebten"}]}]}
